# Test results taken from patent US7273848B2, “Apolipoprotein A-I agonists and their use to treat dyslipidemic disorders” (priority 1997, dated 2007).
# Non-standard residues stand in square brackets, D forms with d. Residues, ends and D or L forms follow the SMILES beside them. No end group written: not given here. Aib = CC(C)(N)C(=O)O
# Target: T1, LCAT (purified from human plasma) (Homo sapiens, UniProt P04180)
# T1 construct: from tissue; host or cells: human plasma
# T1 sequence (P04180 25-440): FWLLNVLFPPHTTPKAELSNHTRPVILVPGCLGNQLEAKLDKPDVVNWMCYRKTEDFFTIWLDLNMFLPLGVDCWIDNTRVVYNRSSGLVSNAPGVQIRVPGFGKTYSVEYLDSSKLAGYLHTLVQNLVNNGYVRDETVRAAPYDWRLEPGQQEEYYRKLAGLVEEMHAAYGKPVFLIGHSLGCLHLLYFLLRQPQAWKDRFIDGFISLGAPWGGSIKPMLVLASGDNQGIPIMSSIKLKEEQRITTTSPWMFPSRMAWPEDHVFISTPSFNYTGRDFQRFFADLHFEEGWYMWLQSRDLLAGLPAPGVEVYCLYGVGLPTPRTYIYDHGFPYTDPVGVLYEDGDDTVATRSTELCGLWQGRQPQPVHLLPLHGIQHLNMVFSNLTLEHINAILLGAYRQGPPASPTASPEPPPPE
# Assay: LCAT activation assay
# Assay type: biochemical
# Settings: LCAT activation as compared with native human ApoA-I (= 100%), equivalent masses
# Procedure: The peptides synthesized as described in Section 6, supra, were analyzed in vitro for their ability to activate LCAT. In the LCAT assay, substrate vesicles (small unilamellar vesicles or “SUVs”) composed of egg phophatidylcholine (EPC) or 1-Palmitoyl-2-oleyl-phosphatidyl-choline (POPC) and radiolabelled cholesterol are preincubated with equivalent masses either of peptide or ApoA-I (isolated from human plasma). The reaction is initiated by addition of LCAT (purified from human plasma). Native ApoA-I, which was used as positive control, represents 100% activation activity. “Specific activity” (i.e., units of activity (LCAT activation)/unit of mass) of the peptides can be calculated as the concentration of peptide that achieves maximum LCAT activation. For example, a series of concentrations of the peptide (e.g., a limiting dilution) can be assayed to determine the “specific activity” for the peptide—the concentration which achieves maximal LCAT activation (i.e., percentage conversion of cholesterol to cholesterol ester) at a specific timepoint in the assay (e.g., 1 hr.). When plotting percentage conversion of cholesterol at, e.g., 1 hr., against the concentration of peptide used, the “specific activity” can be identified as the concentration of peptide that achieves a plateau on the plotted curve.
# The vesicles used in the LCAT assay are SUVs composed of egg phosphatidylcholine (EPC) or 1-palmitoyl-2-oleyl-phosphatidylcholine (POPC) and cholesterol with a molar ratio of 20:1. To prepare a vesicle stock solution sufficient for 40 assays, 7.7 mg EPC (or 7.6 mg POPC; 10 μmol), 78 μg (0.2 μmol) 4-^14C-cholesterol, 116 μg cholesterol (0.3 μmol) are dissolved in 5 ml xylene and lyophilized. Thereafter 4 ml of assay buffer is added to the dry powder and sonicated under nitrogen atmosphere at 4° C. Sonication conditions: Branson 250 sonicator, 10 mm tip, 6×5 minutes; Assay buffer: 10 mM Tris, 0.14 M NaCl, 1 mM EDTA, pH 7.4). The sonicated mixture is centrifuged 6 times for 5 minutes each time at 14,000 rpm (16,000×g) to remove titanium particles. The resulting clear solution is used for the enzyme assay.
# For the LCAT purification, dextran sulfate/Mg^2+ treatment of human plasma is used to obtain lipoprotein deficient serum (LPDS), which is sequentially chromatographed on Phenylsepharose, Affigelblue, ConcanavalinA sepharose and anti-ApoA-I affinity chromatography, as summarized for a representative purification in TABLE IX, below: […]
row,Compound,ACTIVITY (%) LCAT
1,"CC(C)C[C@H](NC(=O)[C@H](C)NC(=O)[C@H](Cc1c[nH]c2ccccc12)NC(=O)[C@H](CC(C)C)NC(=O)C(C)(C)NC(=O)[C@H](CCC(=O)O)NC(=O)[C@H](CC(N)=O)NC(=O)[C@H](CC(C)C)NC(=O)[C@H](CC(C)C)NC(=O)[C@H](CCC(=O)O)NC(=O)[C@H](CCCNC(=N)N)NC(=O)[C@H](Cc1ccccc1)NC(=O)[C@H](CC(C)C)NC(=O)[C@H](CC(=O)O)NC(=O)[C@H](CC(C)C)NC(=O)[C@@H](NC(=O)[C@@H]1CCCN1)C(C)C)C(=O)N[C@@H](CCCCN)C(=O)N[C@@H](CCC(N)=O)C(=O)N[C@@H](CCCCN)C(=O)N[C@@H](CC(C)C)C(=O)N[C@@H](CCCCN)C(=O)O [compound 72, PVLDLFRELLNEXLWALKQKLK] (H-PVLDLFRELLNE[Aib]LWALKQKLK-OH)",11%
2,LVLDLFRELLNELLEALKQKLK [compound 59],17%
3,PLLELFENLLEKLLDALQKKLK [compound 183],6%
4,VLDLFRELLNEGLEALKQKLK [compound 47],23%
5,"CC(C)C[C@H](NC(=O)[C@H](C)NC(=O)[C@H](CCC(=O)O)NC(=O)[C@H](CC(C)C)NC(=O)C(C)(C)NC(=O)[C@H](CCC(=O)O)NC(=O)[C@H](CC(N)=O)NC(=O)[C@H](CC(C)C)NC(=O)[C@H](CCCCN)NC(=O)[C@H](CCC(=O)O)NC(=O)[C@H](CCCNC(=N)N)NC(=O)[C@H](Cc1ccccc1)NC(=O)[C@H](CCC(=O)O)NC(=O)[C@H](CC(=O)O)NC(=O)[C@H](CC(C)C)NC(=O)[C@@H](NC(=O)[C@@H]1CCCN1)C(C)C)C(=O)N[C@@H](CCC(=O)O)C(=O)N[C@@H](CCC(N)=O)C(=O)N[C@@H](CCCCN)C(=O)N[C@@H](CC(C)C)C(=O)N[C@@H](CCCCN)C(=O)O [compound 118, PVLDEFREKLNEXLEALEQKLK] (H-PVLDEFREKLNE[Aib]LEALEQKLK-OH)",0%
6,PVFELFENLLERLLDALQKKLK [peptide 152],50%

# Other lines, results leading:
row,ACTIVITY (%) LCAT,Compound
1,7%,PVLDEFREKLNELLEALKQKLK [compound 84]
2,6%,"CC(C)C[C@H](NC(=O)[C@H](C)NC(=O)[C@H](CCC(=O)O)NC(=O)[C@H](CC(C)C)NC(=O)C(C)(C)NC(=O)[C@H](CCC(=O)O)NC(=O)[C@H](CC(N)=O)NC(=O)[C@H](CC(C)C)NC(=O)[C@H](CCCCN)NC(=O)[C@H](CCC(=O)O)NC(=O)[C@H](CCCNC(=N)N)NC(=O)[C@H](Cc1ccccc1)NC(=O)[C@H](CCC(=O)O)NC(=O)[C@@H](N)CC(=O)O)C(=O)N[C@@H](CCCCN)C(=O)N[C@@H](CCC(N)=O)C(=O)N[C@@H](CCCCN)C(=O)N[C@@H](CC(C)C)C(=O)N[C@@H](CCCCN)C(=O)O [compound 90, ~~~DEFREKLNEXLEALKQKLK] (H-DEFREKLNE[Aib]LEALKQKLK-OH)"
3,2%,"CC(C)C[C@H](NC(=O)[C@H](C)NC(=O)[C@H](CCC(=O)O)NC(=O)[C@H](CC(C)C)NC(=O)C(C)(C)NC(=O)[C@H](CC(C)C)NC(=O)[C@H](CC(N)=O)NC(=O)[C@H](CC(C)C)NC(=O)[C@H](CC(C)C)NC(=O)[C@H](CCC(=O)O)NC(=O)[C@H](CCCNC(=N)N)NC(=O)[C@H](Cc1ccccc1)NC(=O)[C@H](CC(C)C)NC(=O)[C@H](CC(=O)O)NC(=O)[C@H](CC(C)C)NC(=O)[C@@H](NC(=O)[C@@H]1CCCN1)C(C)C)C(=O)N[C@@H](CCCCN)C(=O)N[C@@H](CCC(=O)O)C(=O)N[C@@H](CCCCN)C(=O)N[C@@H](CC(C)C)C(=O)N[C@@H](CCCCN)C(=O)O [compound 102, PVLDLFRELLNLXLEALKEKLK] (H-PVLDLFRELLNL[Aib]LEALKEKLK-OH)"
4,27%,PVLELFENLLERLLEALQKKLK [compound 161]
5,81%,Ac-PVLDLFRELLEELKNKLK-NH2 [compound 196]
6,0%,PVLDLFREKLNEELEALKQKLK [compound 106]
7,16%,"CC(C)C[C@H](NC(=O)[C@H](C)NC(=O)[C@H](CCC(=O)O)NC(=O)[C@H](CC(C)C)NC(=O)C(C)(C)NC(=O)[C@H](CCC(=O)O)NC(=O)[C@H](CC(N)=O)NC(=O)[C@H](CC(C)C)NC(=O)[C@H](CCCCN)NC(=O)[C@H](Cc1c[nH]c2ccccc12)NC(=O)[C@H](CCCNC(=N)N)NC(=O)[C@H](Cc1ccccc1)NC(=O)[C@H](CCC(=O)O)NC(=O)[C@H](CC(=O)O)NC(=O)[C@H](CC(C)C)NC(=O)[C@@H](NC(=O)[C@@H]1CCCN1)C(C)C)C(=O)N[C@@H](CCCCN)C(=O)N[C@@H](CCC(N)=O)C(=O)N[C@@H](CCCCN)C(=O)N[C@@H](CC(C)C)C(=O)N[C@@H](CCCCN)C(=O)O [compound 61, PVLDEFRWKLNEXLEALKQKLK] (H-PVLDEFRWKLNE[Aib]LEALKQKLK-OH)"
8,39%,AVLDLFRELLNELLEALKQKLK [compound 29]

# Tested on: not listed separately
# Assay: Circular dichroism helicity determination
# Assay type: physicochemical
# Settings: percent helicity; 5 μM peptide, 90% vol TFE, 37° C.
# Procedure: Far UV circular dichroism spectra were recorded between 190 and 260 nm (in 0.5 nm or 0.2 nm increments) with a AVIV62DS spectrometer (AVIV Associates, Lakewood, N.J., USA) equipped with a thermoelectric cell holder and sample changer. The instrument was calibrated with (+)-10-[…]. Between one and three scans were collected for each sample, using 10 cm, 5 cm, 1 cm and 0.1 cm path length quartz Suprasil cells, respectively, for peptide concentrations of 10^−7 M to 10^−4 M. The bandwidth was fixed at 1.5 nm and the scan speed to 1s per wavelength step. The reported data are the mean of at least 2 or 3 independent measurements.
# After background substraction, spectra were converted to molar ellipticity (θ) per residue in deg. […] dmol^−1. The peptide concentration was determined by amino acid analysis and also by absorption spectrometry on a Perkin Elmer Lambda 17 UV/Visible spectrophotometer when the peptide contained a chromophore (tryptophane, dansyl, naphtylalanine).
# CD spectra were obtained with free, unbound peptide (5 μM in 5 mM phosphate buffer, pH 7.4); with peptide-SUV complexes (20:1 EPC:Chol., Ri=30 and Ri=50); with peptide-micelle complexes (1-myristoyl-2-hydroxy-sn-glycero-3-phosphatidyl choline, Ri=100); and with free, unbound peptide in the presence of 2,2,2-trifluoroethanol (TFE) (5 μM peptide, 90% vol TFE).
# The SUVs were obtained by dispersing the lipids (10 mM, 20:1 EPC:Chol., Avanti Polar Lipids, AL) in phosphate buffer (5 mM, pH 7.4) with bubbling N2 for 5 min., followed by sonication (1.5 hr.) in a bath sonicator. The homogeneity of the preparation was checked by FPLC.
# The micelles were obtained by dispersing the lipid (6 mM 1-myristoyl-2-hydroxy-sn-glycero-3-phosphatidyl choline, Avanti Polar Lipids, AL) in phosphate buffer (5 mM, pH 7.4) with bubbling N2 for 5 min., followed by vortexing.
# To obtain the peptide-SUV complexes, SUVs were added to the peptide (5 μM in 5 mM phosphate buffer, pH 7.4) at a phospholipid-peptide molar ratio (Ri) of 30 or 50.
# To obtain the peptide-micelle complexes, micelles were added to the peptide (5 μM in 5 mM phosphate buffer, pH 7.4) at a Ri of 100.
# All spectra were recorded at 37° C.
# The degree of helicity of the peptides in the various conditions was determined from the mean residue ellipticity at 222 nm (Chen et al., 1974, Biochemistry 13:3350-3359) or by comparing the CD spectra obtained to reference spectra available on databases (16 helical reference spectra from Provencher & Glockner, 1981, Biochemistry 20:33-37; denatured protein reference spectra from Venyaminov et al., 1993, Anal. Biochem. 214:17-24) using the CONTIN curve-fitting algorithm version 2DP, CD-1 pack (August 1982) (Provencher, 1982, Comput. Phys. Commun. 27:213-227, 229-242). Acceptable fit was determined using the statistical analysis methodology provided by the CONTIN algorithm. The error of all methods was ±5% helicity.
row,He (%) TFE,Compound
1,55%,"Ac-PVLDEFREKLNEELEALKQKLK-NH2 [peptide 75, reference compound]"

# Same assay, conditions: percent helicity; free, unbound peptide 5 μM in 5 mM phosphate buffer, pH 7.4, 37° C.
row,He (%) free,Compound
1,18%,"Ac-PVLDEFREKLNEELEALKQKLK-NH2 [peptide 75, reference compound]"

# Same assay, conditions: percent helicity; peptide-SUV complexes (20:1 EPC:Chol., Ri=30 and Ri=50), 37° C.
row,He (%) SUVs,Compound
1,23%,"Ac-PVLDEFREKLNEELEALKQKLK-NH2 [peptide 75, reference compound]"

# Same assay, conditions: percent helicity; peptide-micelle complexes, Ri=100, 37° C.
row,He (%) mics,Compound
1,28%,"Ac-PVLDEFREKLNEELEALKQKLK-NH2 [peptide 75, reference compound]"
